Reference: patent US20050250137A1, “Molecular targets of cancer and aging” (priority 2002, published 2005)

Test: GoMiner gene ontology analysis of differentially regulated genes
Design: species or system human
[1] = Cellular component: Chromosome, GO 0005694, Total 108
[2] = Cellular component: Cytoplasm, GO 0005737, Total 1705
[3] = Cellular component: Cytoplasmic vesicle, GO 0016023, Total 59
[4] = Cellular component: Cytoskeleton, GO 0005856, Total 334
[5] = Cellular component: Cytosol, GO 0005829, Total 176
[6] = Cellular component: Endoplasmic reticulum, GO 0005783, Total 244
[7] = Cellular component: Extracellular, GO 0005576, Total 586
[8] = Cellular component: Membrane, GO 0016020, Total 1976
[9] = Cellular component: Mitochondrion, GO 0005739, Total 315
[10] = Cellular component: Nucleus, GO 0005634, Total 1483
[11] = Cellular component: Ribosome, GO 0005840, Total 61
[12] = Cellular component: actin cytoskeleton, GO 0015629, Total 120
[13] = Cellular component: endomembrane system, GO 0012505, Total 112
[14] = Cellular component: extracellular matrix, GO 0005578, Total 181
[15] = Cellular component: extracellular space, GO 0005615, Total 228
[16] = Cellular component: integral to membrane, GO 0016021, Total 1549
[17] = Cellular component: microtubule cytoskeleton, GO 0015630, Total 78
[18] = Cellular component: mitochondrial membrane, GO 0005740, Total 75
[19] = Cellular component: nuclear membrane, GO 0005635, Total 50
[20] = Cellular component: nucleolus, GO 0005730, Total 39
[21] = Cellular component: nucleoplasm, GO 0005654, Total 91
[22] = Cellular component: plasma membrane, GO 0005886, Total 1041
[23] = Molecular function: Apoptosis regulator activity, GO 0016329, Total 44
[24] = Molecular function: Binding, GO 0005488, Total 3368
[25] = Molecular function: Catalytic activity, GO 0003824, Total 2129
[26] = Molecular function: Cell adhesion molecule activity, GO 0005194, Total 209
[27] = Molecular function: Defense/immunity protein activity, GO 0003793, Total 36
[28] = Molecular function: Enzyme regulator activity, GO 0030234, Total 306
[29] = Molecular function: Motor activity, GO 0003774, Total 61
[30] = Molecular function: Obsolete molecular function, GO 0008369, Total 419
[31] = Molecular function: Signal transducer activity, GO 0004871, Total 1157
[32] = Molecular function: Structural molecule activity, GO 0005198, Total 333
[33] = Molecular function: Transcription regulator activity, GO 0030528, Total 630
[34] = Molecular function: Translation regulator activity, GO 0045182, Total 43
[35] = Molecular function: Transporter activity, GO 0005215, Total 822
[36] = Molecular function: carrier activity, GO 0005386, Total 239
[37] = Molecular function: electron transporter activity, GO 0005489, Total 138
[38] = Molecular function: enzyme inhibitor activity, GO 0004857, Total 132
[39] = Molecular function: extracellular matrix structural constituent, GO 0005201, Total 60
[40] = Molecular function: hydrolase activity, GO 0016787, Total 917
[41] = Molecular function: kinase activity, GO 0016301, Total 409
[42] = Molecular function: lipid binding, GO 0008289, Total 94
[43] = Molecular function: metal ion binding, GO 0046872, Total 631
[44] = Molecular function: nucleic acid binding, GO 0003676, Total 1232
[45] = Molecular function: nucleotide binding, GO 0000166, Total 763
[46] = Molecular function: oxidoreductase activity, GO 0016491, Total 320
[47] = Molecular function: protein binding, GO 0005515, Total 814
[48] = Molecular function: receptor activity, GO 0004872, Total 678
[49] = Molecular function: receptor binding (under Binding), GO 0005102, Total 301
[50] = Molecular function: receptor binding (under Signal transducer activity), GO 0005102, Total 301
[51] = Molecular function: receptor signaling protein activity, GO 0005057, Total 127
[52] = Molecular function: structural constituent of cytoskeleton, GO 0005200, Total 62
[53] = Molecular function: transcription factor activity, GO 0003700, Total 472
[54] = Molecular function: transferase activity, GO 0016740, Total 706

**Q.** Which “5-aza-dC Up” value (Cellular component: Cellular—component unknown, GO 0008372, Total 266) does the source give for `Nc1ncn([C@H]2C[C@H](O)[C@@H](CO)O2)c(=O)n1` [5-aza-dC, 5-aza-2′-deoxycytidine] here?
**A.** 8

**Q.** What about the “5-aza-dC Down” value [1] of the same compound?
**A.** 0

**Q.** And the “5-aza-dC Up” value [1]?
**A.** 10

**Q.** What about the “5-aza-dC Down” value [2] of the same compound?
**A.** 9

**Q.** What about the “5-aza-dC Up” value [2] of the same compound?
**A.** 30

**Q.** And the “5-aza-dC Down” value [3]?
**A.** 0

**Q.** And the “5-aza-dC Up” value [3]?
**A.** 2

**Q.** And the “5-aza-dC Down” value [4]?
**A.** 1

**Q.** And the “5-aza-dC Up” value [4]?
**A.** 4

**Q.** What about the “5-aza-dC Down” value [5] of the same compound?
**A.** 1

**Q.** And the “5-aza-dC Up” value [5]?
**A.** 2

**Q.** What about the “5-aza-dC Down” value [6] of the same compound?
**A.** 1

**Q.** And the “5-aza-dC Up” value [6]?
**A.** 4

**Q.** And the “5-aza-dC Down” value [7]?
**A.** 1

**Q.** What about the “5-aza-dC Up” value [7] of the same compound?
**A.** 23

**Q.** And the “5-aza-dC Down” value [8]?
**A.** 6

**Q.** And the “5-aza-dC Up” value [8]?
**A.** 24

**Q.** And the “5-aza-dC Down” value [9]?
**A.** 2

**Q.** What about the “5-aza-dC Up” value [9] of the same compound?
**A.** 3

**Q.** What about the “5-aza-dC Down” value [10] of the same compound?
**A.** 7

**Q.** What about the “5-aza-dC Up” value [10] of the same compound?
**A.** 44

**Q.** What about the “5-aza-dC Down” value [11] of the same compound?
**A.** 1

**Q.** What about the “5-aza-dC Up” value [11] of the same compound?
**A.** 1

**Q.** And the “5-aza-dC Down” value [12]?
**A.** 0

**Q.** And the “5-aza-dC Up” value [12]?
**A.** 0

**Q.** What about the “5-aza-dC Down” value [13] of the same compound?
**A.** 0

**Q.** What about the “5-aza-dC Up” value [13] of the same compound?
**A.** 1

**Q.** What about the “5-aza-dC Down” value [14] of the same compound?
**A.** 0

**Q.** What about the “5-aza-dC Up” value [14] of the same compound?
**A.** 4

**Q.** What about the “5-aza-dC Down” value [15] of the same compound?
**A.** 0

**Q.** And the “5-aza-dC Up” value [15]?
**A.** 13

**Q.** What about the “5-aza-dC Down” value [16] of the same compound?
**A.** 5

**Q.** What about the “5-aza-dC Up” value [16] of the same compound?
**A.** 18

**Q.** What about the “5-aza-dC Down” value [17] of the same compound?
**A.** 1

**Q.** What about the “5-aza-dC Up” value [17] of the same compound?
**A.** 0

**Q.** What about the “5-aza-dC Down” value [18] of the same compound?
**A.** 0

**Q.** What about the “5-aza-dC Up” value [18] of the same compound?
**A.** 0

**Q.** And the “5-aza-dC Down” value [19]?
**A.** 0

**Q.** What about the “5-aza-dC Up” value [19] of the same compound?
**A.** 0

**Q.** What about the “5-aza-dC Down” value [20] of the same compound?
**A.** 0

**Q.** And the “5-aza-dC Up” value [20]?
**A.** 1

**Q.** What about the “5-aza-dC Down” value [21] of the same compound?
**A.** 0

**Q.** And the “5-aza-dC Up” value [21]?
**A.** 5

**Q.** What about the “5-aza-dC Down” value [22] of the same compound?
**A.** 3

**Q.** And the “5-aza-dC Up” value [22]?
**A.** 13

**Q.** What about the “5-aza-dC Down” value [23] of the same compound?
**A.** 0

**Q.** And the “5-aza-dC Up” value [23]?
**A.** 4

**Q.** What about the “5-aza-dC Down” value [24] of the same compound?
**A.** 9

**Q.** And the “5-aza-dC Up” value [24]?
**A.** 83

**Q.** What about the “5-aza-dC Down” value [25] of the same compound?
**A.** 12

**Q.** And the “5-aza-dC Up” value [25]?
**A.** 43

**Q.** What about the “5-aza-dC Down” value [26] of the same compound?
**A.** 0

**Q.** What about the “5-aza-dC Up” value [26] of the same compound?
**A.** 3

**Q.** What about the “5-aza-dC Down” value [27] of the same compound?
**A.** 0

**Q.** What about the “5-aza-dC Up” value [27] of the same compound?
**A.** 1

**Q.** And the “5-aza-dC Down” value [28]?
**A.** 5

**Q.** And the “5-aza-dC Up” value [28]?
**A.** 6

**Q.** What about the “5-aza-dC Down” value [29] of the same compound?
**A.** 0

**Q.** What about the “5-aza-dC Up” value [29] of the same compound?
**A.** 0

**Q.** What about the “5-aza-dC Down” value [30] of the same compound?
**A.** 1

**Q.** And the “5-aza-dC Up” value [30]?
**A.** 12

**Q.** What about the “5-aza-dC Down” value [31] of the same compound?
**A.** 5

**Q.** What about the “5-aza-dC Up” value [31] of the same compound?
**A.** 23

**Q.** And the “5-aza-dC Down” value [32]?
**A.** 3

**Q.** What about the “5-aza-dC Up” value [32] of the same compound?
**A.** 4

**Q.** And the “5-aza-dC Down” value [33]?
**A.** 0

**Q.** What about the “5-aza-dC Up” value [33] of the same compound?
**A.** 18

**Q.** What about the “5-aza-dC Down” value [34] of the same compound?
**A.** 1

**Q.** What about the “5-aza-dC Up” value [34] of the same compound?
**A.** 1

**Q.** What about the “5-aza-dC Down” value [35] of the same compound?
**A.** 1

**Q.** And the “5-aza-dC Up” value [35]?
**A.** 14

**Q.** And the “5-aza-dC Down” value [36]?
**A.** 1

**Q.** What about the “5-aza-dC Up” value [36] of the same compound?
**A.** 3

**Q.** And the “5-aza-dC Down” value [37]?
**A.** 1

**Q.** What about the “5-aza-dC Up” value [37] of the same compound?
**A.** 5

**Q.** What about the “5-aza-dC Down” value [38] of the same compound?
**A.** 2

**Q.** And the “5-aza-dC Up” value [38]?
**A.** 4

**Q.** What about the “5-aza-dC Down” value [39] of the same compound?
**A.** 0

**Q.** What about the “5-aza-dC Up” value [39] of the same compound?
**A.** 1

**Q.** And the “5-aza-dC Down” value [40]?
**A.** 4

**Q.** And the “5-aza-dC Up” value [40]?
**A.** 25

**Q.** What about the “5-aza-dC Down” value [41] of the same compound?
**A.** 3

**Q.** What about the “5-aza-dC Up” value [41] of the same compound?
**A.** 2

**Q.** What about the “5-aza-dC Down” value [42] of the same compound?
**A.** 0

**Q.** What about the “5-aza-dC Up” value [42] of the same compound?
**A.** 1

**Q.** And the “5-aza-dC Down” value [43]?
**A.** 0

**Q.** What about the “5-aza-dC Up” value [43] of the same compound?
**A.** 12

**Q.** What about the “5-aza-dC Down” value [44] of the same compound?
**A.** 6

**Q.** What about the “5-aza-dC Up” value [44] of the same compound?
**A.** 36

**Q.** And the “5-aza-dC Down” value [45]?
**A.** 3

**Q.** And the “5-aza-dC Up” value [45]?
**A.** 10

**Q.** And the “5-aza-dC Down” value [46]?
**A.** 2

**Q.** What about the “5-aza-dC Up” value [46] of the same compound?
**A.** 6

**Q.** What about the “5-aza-dC Down” value [47] of the same compound?
**A.** 1

**Q.** What about the “5-aza-dC Up” value [47] of the same compound?
**A.** 26

**Q.** And the “5-aza-dC Down” value [48]?
**A.** 4

**Q.** And the “5-aza-dC Up” value [48]?
**A.** 11

**Q.** And the “5-aza-dC Down” value [49]?
**A.** 1

**Q.** What about the “5-aza-dC Up” value [49] of the same compound?
**A.** 14

**Q.** And the “5-aza-dC Down” value [50]?
**A.** 1

**Q.** And the “5-aza-dC Up” value [50]?
**A.** 14

**Q.** What about the “5-aza-dC Down” value [51] of the same compound?
**A.** 0

**Q.** What about the “5-aza-dC Up” value [51] of the same compound?
**A.** 0

**Q.** What about the “5-aza-dC Down” value [52] of the same compound?
**A.** 0

**Q.** And the “5-aza-dC Up” value [52]?
**A.** 1

**Q.** What about the “5-aza-dC Down” value [53] of the same compound?
**A.** 0

**Q.** What about the “5-aza-dC Up” value [53] of the same compound?
**A.** 12

**Q.** And the “5-aza-dC Down” value [54]?
**A.** 5

**Q.** And the “5-aza-dC Up” value [54]?
**A.** 8
